Patent US8530636B2, “Method for regulating protein function in cells in vivo using synthetic small molecules” (priority 2008, dated 2013)
Like-named read-outs stand apart in the source and are kept apart here.

System: HCT116 tumors

## 1-[2-(3,4,5-trimethoxy-phenyl)-butyryl]-piperazine-2-carboxylic acid 3-(3,4-dimethoxy-phenyl)-1-[3-(2-morpholin-4-yl-ethoxy)-phenyl]-propyl ester [Shield1]
Shield1 delayed until 3 days following virus
  Virus in the tumor (viral luciferase expression): equivalent to those observed in animals treated with virus alone
Shield1 started prior to virus delivery
  Virus in the tumor (viral luciferase expression): only modest levels of virus
mouse, in vivo
  Adverse physiological effects: no adverse physiological effects observed
  Tumor burden compared to virus alone: significantly decreased tumor burden
  Tumor responses: Seven of the eight animals demonstrated complete and durable responses
No virus
  Tumor burden, Shield1 alone: no effect on tumor burden
